In PubChem BioAssay (NCI):
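Grown in 96-well plates, cells were treated for 48 hours with each compound at five concentrations. Insufficient inhibition: endpoint recorded as highest concentration tested. Abbreviation: GI50, concentration required for 50% inhibition of growth. At the TGI there is no net growth.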 Peptide text beside a SMILES is read from it. * marks the point of attachment. Boc = CC(C)(C)OC(=O)*

Key:
Experiment in all cases: NCI-60 cell line screen, 48 h
KM12 colon = system: KM12 colon
NCI-H23 lung = system: NCI-H23 lung
K-562 leukemia = system: K-562 leukemia
HCT-116 colon = system: HCT-116 colon
OVCAR-3 ovarian = system: OVCAR-3 ovarian
OVCAR-8 ovarian = system: OVCAR-8 ovarian
SW-620 colon = system: SW-620 colon
UACC-62 melanoma = system: UACC-62 melanoma
NCI-H226 lung = system: NCI-H226 lung
EKVX NSCLC = system: EKVX NSCLC
SNB-19 CNS = system: SNB-19 CNS
UO-31 renal = system: UO-31 renal
SK-MEL-5 melanoma = system: SK-MEL-5 melanoma
RPMI-8226 leukemia = system: RPMI-8226 leukemia
SK-MEL-28 melanoma = system: SK-MEL-28 melanoma
NCI-H522 lung = system: NCI-H522 lung
HOP-92 NSCLC = system: HOP-92 NSCLC
U251 CNS = system: U251 CNS
786-0 renal = system: 786-0 renal
MALME-3M melanoma = system: MALME-3M melanoma
NCI-H460 lung = system: NCI-H460 lung
A549 NSCLC = system: A549 NSCLC
ACHN renal = system: ACHN renal
SF-295 CNS = system: SF-295 CNS
SN12C renal = system: SN12C renal
M14 melanoma = system: M14 melanoma
DU-145 prostate = system: DU-145 prostate
CAKI-1 renal = system: CAKI-1 renal
HCC-2998 colon = system: HCC-2998 colon
SF-539 CNS = system: SF-539 CNS
SK-OV-3 ovarian = system: SK-OV-3 ovarian
COLO 205 colon = system: COLO 205 colon
SR leukemia = system: SR leukemia
HOP-62 NSCLC = system: HOP-62 NSCLC
MDA-MB-231 breast = system: MDA-MB-231 breast
CCRF-CEM leukemia = system: CCRF-CEM leukemia
HL-60(TB) leukemia = system: HL-60(TB) leukemia
HCT-15 colon = system: HCT-15 colon
SF-268 CNS = system: SF-268 CNS
SK-MEL-2 melanoma = system: SK-MEL-2 melanoma
OVCAR-4 ovarian = system: OVCAR-4 ovarian
OVCAR-5 ovarian = system: OVCAR-5 ovarian
UACC-257 melanoma = system: UACC-257 melanoma
RXF 393 renal = system: RXF 393 renal
LOX IMVI melanoma = system: LOX IMVI melanoma
MOLT-4 leukemia = system: MOLT-4 leukemia
HT29 colon = system: HT29 colon
IGROV1 ovarian = system: IGROV1 ovarian
BT-549 breast = system: BT-549 breast
SNB-75 CNS = system: SNB-75 CNS
HS 578T breast = system: HS 578T breast
TK-10 renal = system: TK-10 renal
T-47D breast = system: T-47D breast
A498 renal = system: A498 renal
MDA-MB-435 = system: MDA-MB-435
PC-3 prostate = system: PC-3 prostate
NCI/ADR-RES ovarian = system: NCI/ADR-RES ovarian
MCF7 breast = system: MCF7 breast

COc1cc(/C=C(/c2ccccc2)[N+](=O)[O-])c(OC)c2c1OCO2
GI50 (KM12 colon): 1.84 µM | TGI (KM12 colon): 3.44 µM | GI50 (NCI-H23 lung): 1.73 µM | TGI (NCI-H23 lung): 3.41 µM | GI50 (K-562 leukemia): 0.373 µM | TGI (K-562 leukemia): 13.7 µM | GI50 (HCT-116 colon): 1.3 µM | TGI (HCT-116 colon): 3 µM | GI50 (OVCAR-3 ovarian): 1.32 µM | TGI (OVCAR-3 ovarian): 2.63 µM | GI50 (OVCAR-8 ovarian): 2.12 µM | TGI (OVCAR-8 ovarian): 6.74 µM | GI50 (SW-620 colon): 1.52 µM | TGI (SW-620 colon): 3.56 µM | GI50 (UACC-62 melanoma): 1.44 µM | TGI (UACC-62 melanoma): 2.98 µM | GI50 (NCI-H226 lung): 1.79 µM | TGI (NCI-H226 lung): 3.46 µM | GI50 (EKVX NSCLC): 1.69 µM | TGI (EKVX NSCLC): 3.32 µM | GI50 (SNB-19 CNS): 1.58 µM | TGI (SNB-19 CNS): 2.95 µM | GI50 (UO-31 renal): 1.28 µM | TGI (UO-31 renal): 2.54 µM | GI50 (SK-MEL-5 melanoma): 1.75 µM | TGI (SK-MEL-5 melanoma): 3.14 µM | GI50 (RPMI-8226 leukemia): 0.459 µM | TGI (RPMI-8226 leukemia): 4.1 µM | GI50 (SK-MEL-28 melanoma): 1.47 µM | TGI (SK-MEL-28 melanoma): 2.84 µM | GI50 (NCI-H522 lung): 1.59 µM | TGI (NCI-H522 lung): 4.03 µM | GI50 (HOP-92 NSCLC): 1.48 µM | TGI (HOP-92 NSCLC): 3.2 µM | GI50 (U251 CNS): 1.52 µM | TGI (U251 CNS): 3.05 µM | GI50 (786-0 renal): 1.62 µM | TGI (786-0 renal): 3.05 µM | GI50 (MALME-3M melanoma): 1.53 µM | TGI (MALME-3M melanoma): 3.21 µM | GI50 (NCI-H460 lung): 1.87 µM | TGI (NCI-H460 lung): 3.58 µM | GI50 (A549 NSCLC): 2.1 µM | TGI (A549 NSCLC): 5.03 µM | GI50 (ACHN renal): 1.71 µM | TGI (ACHN renal): 3.08 µM | GI50 (SF-295 CNS): 2.78 µM | TGI (SF-295 CNS): 7.88 µM | GI50 (SN12C renal): 1.56 µM | TGI (SN12C renal): 3.79 µM | GI50 (M14 melanoma): 1.56 µM | TGI (M14 melanoma): 3.3 µM | GI50 (DU-145 prostate): 1.64 µM | TGI (DU-145 prostate): 3.02 µM | GI50 (CAKI-1 renal): 1.76 µM | TGI (CAKI-1 renal): 3.95 µM | GI50 (HCC-2998 colon): 1.97 µM | TGI (HCC-2998 colon): 3.44 µM | GI50 (SF-539 CNS): 1.7 µM | TGI (SF-539 CNS): 3.09 µM | GI50 (SK-OV-3 ovarian): 2.89 µM | TGI (SK-OV-3 ovarian): 8.29 µM | GI50 (COLO 205 colon): 1.98 µM | TGI (COLO 205 colon): 4.25 µM | GI50 (SR leukemia): 0.334 µM | TGI (SR leukemia): 2.65 µM | GI50 (HOP-62 NSCLC): 2.32 µM | TGI (HOP-62 NSCLC): 5.12 µM | GI50 (MDA-MB-231 breast): 1.7 µM | TGI (MDA-MB-231 breast): 3.33 µM | GI50 (CCRF-CEM leukemia): 0.522 µM | TGI (CCRF-CEM leukemia): > 100 µM | GI50 (HL-60(TB) leukemia): 1.79 µM | TGI (HL-60(TB) leukemia): 5.64 µM | GI50 (HCT-15 colon): 0.389 µM | TGI (HCT-15 colon): 1.6 µM | GI50 (SF-268 CNS): 1.84 µM | TGI (SF-268 CNS): 3.92 µM | GI50 (SK-MEL-2 melanoma): 1.85 µM | TGI (SK-MEL-2 melanoma): 4 µM | GI50 (OVCAR-4 ovarian): 1.74 µM | TGI (OVCAR-4 ovarian): 3.15 µM | GI50 (OVCAR-5 ovarian): 1.76 µM | TGI (OVCAR-5 ovarian): 3.58 µM | GI50 (UACC-257 melanoma): 1.58 µM | TGI (UACC-257 melanoma): 3.4 µM | GI50 (RXF 393 renal): 1.49 µM | TGI (RXF 393 renal): 2.85 µM | GI50 (LOX IMVI melanoma): 1.14 µM | TGI (LOX IMVI melanoma): 2.44 µM | GI50 (MOLT-4 leukemia): 1.86 µM | TGI (MOLT-4 leukemia): 6.41 µM | GI50 (HT29 colon): 2.64 µM | TGI (HT29 colon): 13.1 µM | GI50 (IGROV1 ovarian): 1.16 µM | TGI (IGROV1 ovarian): 2.6 µM | GI50 (BT-549 breast): 1.66 µM | TGI (BT-549 breast): 3.23 µM | GI50 (SNB-75 CNS): 0.539 µM | TGI (SNB-75 CNS): 2.04 µM | GI50 (HS 578T breast): 2.99 µM | TGI (HS 578T breast): 14.9 µM | GI50 (TK-10 renal): 2.05 µM | TGI (TK-10 renal): 3.81 µM | GI50 (T-47D breast): 1.21 µM | TGI (T-47D breast): 5.57 µM | GI50 (A498 renal): 1.54 µM | TGI (A498 renal): 3 µM | GI50 (MDA-MB-435): 1.5 µM | TGI (MDA-MB-435): 3.08 µM | GI50 (PC-3 prostate): 1.71 µM | TGI (PC-3 prostate): 3.59 µM | GI50 (NCI/ADR-RES ovarian): 2.43 µM | TGI (NCI/ADR-RES ovarian): 7.37 µM

CC(NC(=O)C(NC(=O)OC(C)(C)C)C(C)C)C(=O)N1CCCC1C(=O)O (stereo not drawn) (Boc-Val-Ala-Pro-OH; configuration not given here)
GI50 (UACC-62 melanoma): 36.2 µg/mL | GI50 (SNB-75 CNS): 0.0101 µg/mL | TGI (SNB-75 CNS): 0.09 µg/mL | GI50 (HS 578T breast): 38.1 µg/mL

CCN1C(=O)C(=Cc2ccc(-c3ccccc3)cc2)C(=O)N(CC)C1=S
TGI (KM12 colon): > 100 µM | TGI (NCI-H23 lung): > 100 µM | TGI (K-562 leukemia): > 100 µM | TGI (HCT-116 colon): > 100 µM | TGI (OVCAR-3 ovarian): > 100 µM | TGI (OVCAR-8 ovarian): > 100 µM | TGI (SW-620 colon): > 100 µM | TGI (UACC-62 melanoma): > 100 µM | TGI (NCI-H226 lung): > 100 µM | TGI (EKVX NSCLC): > 100 µM | TGI (SNB-19 CNS): > 100 µM | TGI (UO-31 renal): > 100 µM | TGI (SK-MEL-5 melanoma): > 100 µM | TGI (RPMI-8226 leukemia): > 100 µM | TGI (SK-MEL-28 melanoma): > 100 µM | TGI (HOP-92 NSCLC): > 100 µM | TGI (U251 CNS): > 100 µM | TGI (786-0 renal): > 100 µM | TGI (MALME-3M melanoma): > 100 µM | TGI (NCI-H460 lung): > 100 µM | TGI (A549 NSCLC): > 100 µM | TGI (ACHN renal): > 100 µM | TGI (SF-295 CNS): > 100 µM | TGI (SN12C renal): > 100 µM | TGI (M14 melanoma): > 100 µM | TGI (DU-145 prostate): > 100 µM | TGI (CAKI-1 renal): > 100 µM | TGI (HCC-2998 colon): > 100 µM | TGI (SF-539 CNS): > 100 µM | TGI (SK-OV-3 ovarian): > 100 µM | TGI (COLO 205 colon): > 100 µM | TGI (HOP-62 NSCLC): > 100 µM | TGI (MDA-MB-231 breast): > 100 µM | TGI (CCRF-CEM leukemia): > 100 µM | TGI (HL-60(TB) leukemia): > 100 µM | TGI (HCT-15 colon): > 100 µM | TGI (SF-268 CNS): > 100 µM | TGI (SK-MEL-2 melanoma): > 100 µM | TGI (OVCAR-4 ovarian): > 100 µM | TGI (OVCAR-5 ovarian): > 100 µM | TGI (UACC-257 melanoma): > 100 µM | TGI (RXF 393 renal): > 100 µM | TGI (LOX IMVI melanoma): > 100 µM | TGI (MOLT-4 leukemia): > 100 µM | TGI (HT29 colon): > 100 µM | TGI (IGROV1 ovarian): > 100 µM | TGI (BT-549 breast): > 100 µM | TGI (SNB-75 CNS): > 100 µM | TGI (HS 578T breast): > 100 µM | TGI (TK-10 renal): > 100 µM | TGI (T-47D breast): > 100 µM | TGI (MDA-MB-435): > 100 µM | TGI (PC-3 prostate): > 100 µM | TGI (MCF7 breast): > 100 µM | TGI (NCI/ADR-RES ovarian): > 100 µM
